This is an account of results in patent publication US6528528B2 (Warner-Lambert Company, priority 1997, dated 2003).

The target of one assay is T1, rabbit reticulocyte 15-LO (Oryctolagus cuniculus, UniProt P12530).
T1 construct: Fifteen-lipoxygenase was obtained from phenylhydrazine-treated rabbits and purified per the method of Rapoport; from tissue; host or cells: reticulocytes of phenylhydrazine-treated rabbits
T1 sequence (P12530 1-663): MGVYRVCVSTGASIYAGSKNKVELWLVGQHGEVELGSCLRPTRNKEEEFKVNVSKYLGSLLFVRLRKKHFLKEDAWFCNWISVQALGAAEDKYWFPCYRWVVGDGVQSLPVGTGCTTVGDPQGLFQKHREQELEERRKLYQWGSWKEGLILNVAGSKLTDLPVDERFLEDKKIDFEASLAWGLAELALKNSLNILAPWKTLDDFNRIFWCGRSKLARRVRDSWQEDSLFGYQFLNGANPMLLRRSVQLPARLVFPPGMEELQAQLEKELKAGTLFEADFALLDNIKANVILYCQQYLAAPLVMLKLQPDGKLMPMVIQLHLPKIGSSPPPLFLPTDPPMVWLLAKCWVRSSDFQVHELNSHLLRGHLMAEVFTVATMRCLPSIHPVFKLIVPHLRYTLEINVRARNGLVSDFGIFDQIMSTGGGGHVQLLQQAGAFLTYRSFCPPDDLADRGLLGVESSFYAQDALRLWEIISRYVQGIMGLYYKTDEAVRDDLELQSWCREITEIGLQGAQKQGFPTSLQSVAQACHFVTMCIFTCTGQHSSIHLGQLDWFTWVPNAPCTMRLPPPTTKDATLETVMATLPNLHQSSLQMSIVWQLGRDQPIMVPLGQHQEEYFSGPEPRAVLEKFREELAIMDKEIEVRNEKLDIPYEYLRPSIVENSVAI
Kind of assay: Rabbit Reticulocyte 15-LO Assay (h15LO). Format: biochemical. Particulars: Table 2; 2U rabbit reticulocyte 15-LO, 174 μM linoleic acid, 15 minutes at 4° C. On the procedure: Rabbit Reticulocyte 15-LO Assay (h15LO)
The present 15-LO assay takes advantage of the ability of 15-LO to oxidize the fatty acid linoleic acid to the hydroperoxy fatty acid 13-(S)HPODE, resulting in the formation of a conjugated diene. The 15-LO inhibitors are incubated with 15-LO enzyme in the presence of linoleic acid substrate. The initial reaction is compared to an uninhibited (maximal) reaction to yield % inhibition. […] This prevents artificial nonenzyme lipid peroxidation and product breakdown in the sample. 13-HPODE is quantitated by comparing peak areas of individual samples with those from a standard curve generated using authentic 13-HODE. This assay is performed using 2U of rabbit reticulocyte 15-LO in the presence of 174 μM linoleic acid. The reaction is incubated for 15 minutes at 4° C. The total reaction volume is 100 μL in PBS containing 0.2% Na cholate.
Fifteen-lipoxygenase was obtained from phenylhydrazine-treated rabbits and purified per the method of Rapoport (Rapoport S. M., Schewe T., Wiesner R., et al. The lipoxygenase of reticulocytes. Purification, characterization, and biological dynamics of the lipoxygenase; its identity with the respiratory inhibitors of the reticulocyte. European Journal of Biochemistry, 1979;96:545-561). The following chemicals were purchased and used as received: linoleic acid (NUJCheck Prep), 13-HPODE (Biomol Research Labs), sodium cholate (Sigma), trimethyl phosphite (Fluka Chemicals).
`COc1ccc(NC(=O)c2ccc(Cl)c(Cl)c2)cc1Nc1cccc(C(F)(F)F)c1` [Example 160, 3,4-Dichloro-N-[4-methoxy-3-(3-trifluoromethyl-phenylamino)-phenyl]-benzamide] had an IC50 of 119 nM. Still for that read-out and setting: with `COC(=O)c1cccc(NC(=S)Nc2cc(C(=O)Nc3ccccc3)ccc2OC)c1` [Example 161, 3-[3-(2-Methoxy-5-phenylcarbamoyl-phenyl)-thioureido]-benzoic Acid Methyl Ester] the figure was 22 nM; with `COc1ccc(C(=O)Nc2ccc(F)c(F)c2)cc1NC(=S)Nc1cccc(C(=O)O)c1` [Example 162, 3-{3-[5-(3,4-Difluoro-phenylcarbamoyl)-2-methoxy-phenyl]-thioureido}-benzoic Acid], 55 nM. For the compound `COc1ccc(NC(=O)c2ccc(F)c(F)c2)cc1NC(=S)Nc1ccc(C(=O)O)cc1` [Example 168, 4-{3-[5-(3,4-Difluoro-benzoylamino)-2-methoxy-phenyl]-thioureido}-benzoic Acid acid], the IC50 was 109 nM. Regarding `COc1ccc(NC(=O)c2ccc(F)c(F)c2)cc1NC(=S)Nc1cccc(C(=O)O)c1` [Example 169, 3-{3-[5-(3,4-Difluoro-benzoylamino)-2-methoxy-phenyl]-thioureido}-benzoic Acid], 246 nM corresponded to half-maximal inhibition (IC50).

As for `COc1ccc(NC(=O)Nc2ccc(Cl)c(Cl)c2)cc1NC(=S)Nc1cc(Cl)cc(Cl)c1` [Example 171, 1-(3,4-Dichloro-phenyl)-3-{3-[3-(3,5-dichloro-phenyl)-thioureido]-4-methoxy-phenyl}-urea], inhibition was half-maximal at 275 nM (IC50). `COc1ccc(C(=O)OCc2ccccc2)cc1NC(=S)Nc1cc(Cl)cc(Cl)c1` [Example 176, 3-[3-(3,5-Dichloro-phenyl)-thioureido]-4-methoxy-benzoic Acid Benzyl Ester]: the IC50 is 800 nM. On the same count and under the same terms, with `CCCCCCCCCCCCS(=O)(=O)Nc1cc(C(=O)Nc2ccccc2)ccc1OC` [Example 177, 3-(Dodecane-1-sulfonylamino)-4-methoxy-N-phenyl-benzamide] the figure was 2 nM; with `CCCCCCCCS(=O)(=O)Nc1cc(C(=O)Nc2ccccc2)ccc1OC` [Example 178, 4-Methoxy-3-(octane-1-sulfonylamino)-N-phenyl-benzamide], 4 nM; with `CCCCCCCCCCS(=O)(=O)Nc1cc(C(=O)Nc2ccccc2)ccc1OC` [Example 179, 3-(Decane-1-sulfonylamino)-4-methoxy-N-phenyl-benzamide], 7 nM.

On to `COc1ccc(C(=O)Nc2ccc(F)c(F)c2)cc1NS(=O)(=O)c1cccc([N+](=O)[O-])c1` [Example 180, 3-(3-Nitro-benzenesufonylamino)-4-methoxy-N-(3,4-difluoro-phenyl)-benzamide], for which the IC50 turned out to be 36 nM. On the same count and under the same terms, the figure for `COc1ccc(C(=O)Nc2ccccc2)cc1NS(=O)(=O)C(C)C` [Example 182, 3-(1-Methylethyl-1-sulfonylamino)-4-methoxy-N-phenyl-benzamide] is 232 nM. In turn, `COc1ccc(C(=O)Nc2ccccc2)cc1NS(=O)(=O)c1ccc(C(=O)O)cc1` [Example 183, 4-(2-Methoxy-5-phenylcarbamoyl-phenylsulfamoyl)-benzoic Acid] came in with an IC50 of 293 nM.

With `CCCCCCCCCCCCCCCCCCS(=O)(=O)Nc1cc(C(=O)Nc2ccccc2)ccc1OC` [Example 184, 3-(Octadecane-1-sulfonylamino)-4-methoxy-N-phenyl-benzamide], the concentration for half-maximal inhibition (IC50) worked out at 732 nM.

The assay is the same for the next values; noted with them: Table 2; concentration not given.
Take `CCOC(=O)c1cccc(NC(=O)c2ccc(OC)c(Nc3cccc(C(F)(F)F)c3)c2)c1` [Example 157, 3-[4-Methoxy-3-(3-trifluoromethyl-phenylamino)-benzoylamino]-benzoic Acid Ethyl Ester]: the “h15LO, value given as bare %” value stood at 78.83%. Regarding `O=C(Nc1ccccc1)c1ccc(OC(F)(F)F)c(Nc2cccc(C(F)(F)F)c2)c1` [Example 158, 4-Trifluoromethoxy-3-(3-trifluoromethyl-phenylamino)-N-phenyl-benzamide], the “h15LO, value given as bare %” value is reported as 48.28%. Still for that read-out and setting: the figure for `O=C(Nc1ccc(F)cc1)c1ccc(OC(F)(F)F)c(Nc2cccc(C(F)(F)F)c2)c1` [Example 159, 4-Trifluoromethoxy-3-(3-trifluoromethyl-phenylamino)-N-(4-fluoro-phenyl)-benzamide] is 44.58%; for `COc1ccc(C(=O)Nc2ccc(F)c(F)c2)cc1NC(=S)Nc1ccc(S(=O)(=O)[O-])cc1.[Na+]` [Example 165, 4-{3-[5-(3,4-Difluoro-phenylcarbamoyl)-2-methoxy-phenyl]-thioureido}-benzenesulfonic Acid, Sodium Salt] it is 98.51%; for `COc1ccc(C(=O)Nc2ccc(F)cc2)cc1NC(=S)Nc1ccc(C(=O)O)cc1` [Example 166, 4-{3-[5-(4-Fluoro-phenylcarbamoyl)-2-methoxy-phenyl]-thioureido}-benzoic Acid] it is 98.11%.

With `COc1ccc(C(=O)Nc2ccc(F)cc2)cc1NC(=S)Nc1cccc(C(=O)O)c1` [Example 167, 3-{3-[5-(4-Fluoro-phenylcarbamoyl)-2-methoxy-phenyl]-thioureido}-benzoic Acid], the “h15LO, value given as bare %” value turned out to be 96.22%. Turning to `O=C(Nc1ccc(F)c(NC(=S)Nc2cc(Cl)cc(Cl)c2)c1)c1ccc(F)c(F)c1` [Example 170, N-{3-[3-(3,5-Dichloro-phenyl)-thioureido]-4-fluoro-phenyl}-3,4-difluoro-benzamide], the “h15LO, value given as bare %” value was found to be 99.53%. On the same count and under the same terms, with `COC(=O)c1cccc(NC(=S)Nc2cc(NC(=O)Nc3ccc(Cl)c(Cl)c3)ccc2OC)c1` [Example 172, 3-(3-{5-[3-(3,4-Dichloro-phenyl)-ureido]-2-methoxy-phenyl}-thioureido)-benzoic Acid Methyl Ester] the figure was 89.03%; with `COc1ccc(NC(=O)Nc2ccc(Cl)c(Cl)c2)cc1NC(=S)Nc1cccc(C(=O)O)c1` [Example 173, 3-(3-{5-[3-(3,4-Dichloro-phenyl}-ureido]-2-methoxy-phenyl)-thioureido)-benzoic Acid], 55%; with `COc1ccc(NC(=O)Nc2ccc(Cl)c(Cl)c2)cc1NC(=S)Nc1cc(C(F)(F)F)cc(C(F)(F)F)c1` [Example 174, 1-{3-[3-(3,5-Bis-trifluoromethyl-phenyl)-thioureido]-4-methoxy-phenyl}-3-(3,4-dichloro-phenyl)-urea], 53%. Take `COc1ccc(NC(=O)Nc2ccc(Cl)c(Cl)c2)cc1NC(=S)Nc1ccc(Cl)c([N+](=O)[O-])c1` [Example 175, 1-{3-[3-(4-Chloro-3-nitro-phenyl)-thioureido]-4-methoxy-phenyl}-3-(3,4-dichloro-phenyl)-urea]: the “h15LO, value given as bare %” value turned out to be 52%. As for `COc1ccc(C(=O)Nc2ccc(F)c(F)c2)cc1NS(=O)(=O)c1cccc(N)c1` [Example 185, 3-(3-Amino-benzenesulfonylamino)-4-methoxy-N-(3,4-difluoro-phenyl)-benzamide], the “h15LO, value given as bare %” value is listed as 99.71%.

Take `COc1ccc(C(=O)Nc2ccc(F)c(F)c2)cc1NS(=O)(=O)c1ccc([N+](=O)[O-])cc1` [Example 186, 4-Methoxy-3-(4-nitro-benzenesulfonylamino)-N-(3,4-difluoro-phenyl)-benzamide]: the “h15LO, value given as bare %” value was 99.35%.

In the case of `COc1ccc(C(=O)Nc2ccc(F)c(F)c2)cc1NS(=O)(=O)c1ccc(C#N)cc1` [Example 187, 3-(4-Cyano-benzenesulfonylamino)-4-methoxy-N-(3,4-difluoro-phenyl)-benzamide], the “h15LO, value given as bare %” value is given as 98.38%. On the same count and under the same terms, the figure for `COc1ccc(C(=O)Nc2ccccc2)cc1NS(=O)(=O)c1ccc([N+](=O)[O-])cc1` [Example 188, 4-Methoxy-3-(4-nitro-benzenesulfonylamino)-N-phenyl-benzamide] is 97.24%; for `COc1ccc(C(=O)Nc2ccc(F)cc2)cc1NS(=O)(=O)c1cccc(C#N)c1` [Example 189, 3-(3-Cyano-benzenesulfonylamino)-4-methoxy-N-(4-fluoro-phenyl)-benzamide] it is 97.17%.

As a reminder, the IC50 is the concentration needed to halve the response being measured. Low readings indicate greater potency in that assay, high ones weaker potency in that assay.
